The results in this text go back to PubChem BioAssay AID1648 (Sanford-Burnham Center for Chemical Genomics, 2009).

Molecules are shown by their SMILES. Calls of active or inactive are those of the source. The rule behind the calls is not given here. Bounds are passed on as bounds.

In the test the target is Serine/threonine-protein kinase mTOR (Homo sapiens) (UniProt P42345). Description: binders of mTOR FRB domain, biophysical, NMR (AID 1648). The conditions noted are these: NMR binding to FRB domain, chemical shift.
Sequence of Serine/threonine-protein kinase mTOR (Homo sapiens) (P42345 2015-2114): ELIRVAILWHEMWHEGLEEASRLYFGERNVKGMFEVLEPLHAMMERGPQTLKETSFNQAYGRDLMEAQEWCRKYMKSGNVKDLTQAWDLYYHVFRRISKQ
Regarding `Fc1cccc(F)c1CN1CCN(c2ncccn2)CC1`, the Kd is > 4 mM (inactive).
Turning to `O=S1(=O)CCC(Nc2ccccc2)C1` (centres undefined), the Kd was > 4 mM (inactive).
Next, `O=C(Nc1ccc2c(c1)OCO2)c1ccc(=O)[nH]n1`: > 4 mM (inactive); `Nc1c(Nc2ccccc2)c2ccccc2oc1=O`: > 4 mM (inactive).
With `C[C@H]1C(=O)O[C@@H]2CCN3CC=C(COC(=O)[C@](C)(O)[C@]1(C)O)[C@H]23` the figure was > 4 mM (inactive); with `CC(O)C(=O)N/N=C/c1ccccc1` (centres undefined), > 4 mM (inactive); with `CC(C)=CCCC1(C)C=Cc2c(O)c3c(c(CC=C(C)C)c2O1)OC12C(=CC4CC1C(C)(C)OC2(C/C=C(/C)C(=O)O)C4=O)C3=O` (centres undefined), > 4 mM (inactive).
`CSc1n[nH]c(NCc2ccccc2)n1`: the Kd is > 4 mM (inactive).
With `COC(=O)c1ccc2snnc2c1` the figure was > 4 mM (inactive); with `COc1cc2c(cc1OC)[C@@H]1C(=O)c3ccc4c(c3O[C@@H]1CO2)C=CC(C)(C)O4`, > 4 mM (inactive).
With `O=C(Nc1cnccn1)c1cccc(C(F)(F)F)c1` the figure was > 4 mM (inactive).
Next, `Nc1n[nH]c(=S)n1-c1ccccc1`: > 4 mM (inactive).
For `CC(=O)NC(C)C12CC3CC(CC(C(=O)O)(C3)C1)C2` (centres undefined), the Kd was > 4 mM (inactive).
Next, `O=C(Nc1ccncc1)c1c(F)cccc1F`: > 4 mM (inactive); `Cc1nn(CC(=O)N2CCCCC2)c(=O)c2ccccc12`: > 4 mM (inactive); `CN(C)c1ccc(CNn2cnnc2)cc1`: > 4 mM (inactive).
In the case of `COC(=O)[C@@H]1OC(=O)C2OC23[C@@]1(C)CCC1[C@]2(C)C(C[C@@H](O)[C@]13C)C(C)(C)[C@H](OC(C)=O)C[C@@H]2OC(C)=O` (some centres undefined), the Kd was > 4 mM (inactive).
On to `Cc1cc(C)n(S(=O)(=O)c2ccc(C(C)(C)C)cc2)n1`, for which the Kd is > 4 mM (inactive).
With `Cn1nnc2c(N3CCC(C(N)=O)CC3)ncnc21` the figure was > 4 mM (inactive); with `Cc1noc(-c2ccccc2)c1C(=O)O`, > 4 mM (inactive).
Next, `O=C1C[C@@H](c2ccccc2)Oc2cc(O)cc(O)c21`: > 4 mM (inactive).
As to `CCOC(=O)c1ccc(F)c(F)c1`, the Kd is > 4 mM (inactive).
With `Cn1cnnc1SCC(=O)Nc1ccccc1`, the Kd is > 4 mM (inactive).
For `CCSc1nc2ccccc2[nH]1`, the Kd was > 4 mM (inactive).
On to `CCOC(=O)c1ccc(Oc2ccc(C)nn2)cc1`, for which the Kd is > 4 mM (inactive).
With `COc1ccc(Cc2nnc3c4cnn(C)c4ncn23)cc1` the figure was > 4 mM (inactive); with `O=C(NCCCSc1ncccn1)Nc1ncccn1`, > 4 mM (inactive).
With `CN(c1ccccc1C(=O)N1CCCC1)S(C)(=O)=O` the figure was > 4 mM (inactive).
With `COc1cc(N)ccc1NC(=O)c1cccs1` the figure was > 4 mM (inactive); with `Cc1[nH]c2ccccc2c1C(=O)CSc1ncn[nH]1`, > 4 mM (inactive).
For `COC(=O)c1c(C)cc(OC(=O)c2c(C)cc(O)c(C=O)c2O)c(C)c1O`, the Kd was > 4 mM (inactive).
Next, `COC(=O)C1=CO[C@@H](O[C@@H]2O[C@H](CO)[C@@H](O)[C@H](O)[C@H]2O)[C@@H]2[C@@H](C)[C@@H](O)C[C@H]12`: > 4 mM (inactive); `Cc1ccc(N2NC(=O)CC2=O)cc1C`: > 4 mM (inactive).
With `CC(=O)NC(O)C(=O)c1ccccc1` (centres undefined) the figure was > 4 mM (inactive); with `NC(=O)CSCc1ccc(Br)cc1`, > 4 mM (inactive).
With `c1ccc2c(c1)ncn2CCn1cnc2ccccc21` the figure was > 4 mM (inactive); with `O=C(O)c1csc2ccccc12`, > 4 mM (inactive); with `COc1ccc(CN2CCOCC2)c(C)c1C`, > 4 mM (inactive).
For `c1ccc2[nH]c(CCn3cncn3)nc2c1`, the Kd was > 4 mM (inactive).

As usually defined, the Kd is the concentration at which binding is half-saturated.
